These results are taken from patent US20060293343A1, “Pyrimidine derivatives” (Asahi Kasei Pharma Corporation, priority 2005, published 2006).

Assay [1] concerns TNF-α production in LPS-stimulated mouse mononuclear cells. Kind of assay: Inhibitory action of TNF-α production using mouse mononuclear cells (in vitro). To be noted: mouse mononuclear cells from peripheral blood of C3H/He mouse; LPS 5 μg/mL, 21 hours; TNF-α ELISA; read-out: IC50 (nM), suppression action of TNF-α production. The format is cell-based. Here is the method:
Mouse mononuclear cells were isolated from the peripheral blood of C3H/He mouse (manufactured by Japan SLC Co., male), and were suspended in a culture medium (trade name RPMI 1640 manufactured by Gibco Co.) containing 10% bovine serum. The cells were seeded in a 96 well plate as 50,000 cells/well, the test compound was added at a desired concentration, and the plate was allowed to stand in an incubator containing 5% CO2 at .37° C. for 15 minutes. LPS was added thereafter at a final concentration of 5 μg/mL, and the plate was allowed to stand in the incubator for 21 hours.
The culture medium containing produced TNF-α was retrieved, and the amount of TNF-α was measured according to the protocol attached to mouse TNF-α ELISA kit (manufactured by R & D Systems Co.). […] The suppression action of TNF-α was expressed-by […] (nM). Ex. No. in Table 9 denotes the example No.

For a further assay, the system named is T1, PDE4.
T1 construct: The PDE4 enzyme was purified from U937 cells that are the cells derived from lymphoma
Kind of assay: Inhibitory action of PDE4 enzyme activity (PDE4 purified from U937 cells). The format is biochemical. To be noted: PDE4 fraction purified from U937 cells; [3H]-cAMP substrate; 30° C., 10 minutes. Here is the method:
(1) Purification of PDE4 from U937 Cells
The PDE4 enzyme was purified from U937 cells that are the cells derived from lymphoma. U937 cells were suspended in buffer solution A (20 mM Tris-HCl(pH 6.5), 1 mM MgCl2, 0.1 mM EGTA, 3 mM 2-mercaptoethanol) containing protease. inhibitor cocktail (manufactured by Sigma Co.), and a soluble fraction was obtained by centrifugation after ultrasonic disintegration (100,000 G, 30 minutes, 4° C.). […] Each fraction was tested for the cAMP metabolized PDE activity to identify the fractions containing PDE4 enzyme.
(2) Measurement of Inhibitory Activity of PDE4 Enzyme Activity
A desired concentration of the test compound was allowed to react in a reaction mixture (100 μL; 40 mM Tris-HCl (pH 7.4), 5 MM MgCl2, 4 mM 2-mercaptoethanol, […] cAMP, 0.83 μCi [^3H]-cAMP and PDE4 fraction) at 30° C. for 10 minutes. The enzyme reaction was stopped by adding 25 μL of trichloroacetic acid to the reaction mixture. The reaction solution was charged on a neutral alumina column equilibrated with 0.1 M of 2-[[tris(hydroxylmethyl)methyl]-amino]-1-ethanesulfonic acid (TES) buffer (pH 8.0) and, after washing the column with a sufficient amount of 0.1 M TES buffer solution, the column was eluted with 2N NaOH. A 500 μL aliquot of the eluate containing [^3H]-5′AMP product was filled in a scintillation vial containing the scintillation cocktail (5 ml, manufactured by Perkin Elmer Co.) to measure radioactivity. […] The inhibitory action of PDE4 enzyme activity was expressed by IC50 (nM). Ex. No. in Table 8 denotes the example No.

The test system of assay [2] is TNF-α production induced by LPS. Kind of assay: Inhibitory action of TNF-α production (in vivo) induced by LPS using mouse. To be noted: C3H/He mouse; orally administered 60 minutes before LPS 10 μg intraperitoneally; plasma TNF-α 90 minutes after LPS; read-out: ED50 (mg/kg), suppression action of TNF-α production. Here is the method:
C3H/He mouse (manufactured by Japan SLC Co., male) was used as a test animal. A desired concentration of the test sample was suspended in 0.5% methyl cellulose solution. The weight of the mouse was measured, and the test compound solution was orally administered at a dosage of 10 mL/kg while only 0.5% methyl cellulose was administered to the reference group. One group contained 5 to 7 mice. LPS was dissolved in physiological saline, and 10 μg was intraperitoneally administered to each mouse. The test compound was administered first, then LPS was administered 60 minutes thereafter. After 90 minutes, the blood was sampled from the large abdominal vein with the heparin, and a plasma was obtained by centrifugation. The content of TNF-α in the plasma was measured according to the protocol attached to TNF-α ELISA kit (manufactured by R & D System Co.). […] The suppression action of TNF-α production was represented by ED50 (mg/kg). Ex. No. in Table 11 denotes the example No.

Regarding `C=CCc1c(C)nc(-c2cccs2)nc1Nc1ccc2cc(C(=O)O)ccc2c1` [Example 3], the IC50 is 1900 nM in assay [1] and 356 nM with PDE4. Taken in the same sequence, the figures for `CCc1c(C)nc(-c2cccs2)nc1Nc1ccc(C(=O)O)cc1` [Example 5] were 265 nM and 1390 nM. Take `CCc1c(C)nc(-c2cccs2)nc1Nc1ccc(CC(=O)O)cc1` [Example 6]: the IC50 in assay [1] was found to be 4930 nM; with PDE4 it was 2940 nM. For `CCc1c(C)nc(-c2cccs2)nc1Nc1ccc2cc(C(=O)O)ccc2c1` [Example 7], the IC50 in assay [1] came to 267 nM; with PDE4 it was 409 nM. Taken in the same sequence, the figures for `CCc1c(C)nc(-c2ccsc2)nc1Nc1ccc2cc(C(=O)O)ccc2c1` [Example 20] were 289 nM and 191 nM.

Consider `C=CCc1c(C)nc(-c2ccoc2)nc1Nc1ccc2cc(C(=O)O)ccc2c1` [Example 23], for which the IC50 in assay [1] turned out to be 2110 nM; in the assay on PDE4, 633 nM. Take `CCc1c(C)nc(-c2ccoc2)nc1Nc1ccc(C(=O)O)cc1` [Example 24]: the IC50 worked out at 865 nM in assay [1] and 3250 nM in the assay with PDE4. On the same counts, the results for `CCc1c(C)nc(-c2ccoc2)nc1Nc1ccc2cc(C(=O)O)ccc2c1` [Example 26] are 219 nM and 312 nM. With `CCc1c(C)nc(-c2ccc(C(=O)OC)s2)nc1Nc1ccc(C(=O)O)cc1` [Example 50], the IC50 in assay [1] was found to be 249 nM.

Turning to `C=CCc1c(CC)nc(-c2ccc(OC)s2)nc1Nc1ccc(C(=O)O)cc1` [Example 54], the IC50 in assay [1] came out at 239 nM.

Turning to `C=CCc1c(CCC)nc(-c2ccsc2)nc1Nc1ccc(C(=O)O)cc1` [Example 68], the IC50 in assay [1] was 247 nM. On the same count and under the same terms, then `CCCc1nc(-c2ccsc2)nc(Nc2ccc3cc(C(=O)O)ccc3c2)c1CC` [Example 73], with 211 nM. Regarding `CCc1c(C)nc(-c2ccc(SC)s2)nc1Nc1ccc2cc(C(=O)O)ccc2c1` [Example 79], inhibition in the assay with PDE4 was half-maximal at 117 nM (IC50). For `CCc1nc(-c2ccc(OC)s2)nc(Nc2ccc(C(=O)O)cc2)c1CC` [Example 80], in assay [1], the IC50 stood at 73 nM.

Turning to `CCc1nc(-c2ccc(OC)s2)nc(Nc2ccc3cc(C(=O)O)ccc3c2)c1CC` [Example 82], the IC50 turned out to be 57 nM in assay [1] and 90 nM in the assay on PDE4. On to `CCc1nc(-c2ccoc2)nc(Nc2ccc(C(=O)O)cc2)c1CC` [Example 86], for which, in assay [1], the IC50 came out at 67 nM. The ED50 in assay [2] amounted to 8 mg/kg.

As to `C=CCc1c(CC)nc(-c2ccoc2)nc1Nc1ccc(C(=O)O)cc1` [Example 103], the ED50 in assay [2] was 37 mg/kg. In turn, `C=CCc1c(CC)nc(-c2ccoc2)nc1Nc1ccc2cc(C(=O)O)ccc2c1` [Example 105] had an IC50 in the assay on PDE4 of 116 nM. Take `CCc1nc(-c2ccc(C)s2)nc(Nc2ccc(CC(=O)O)cc2)c1CC` [Example 110]: in assay [2], the ED50 worked out at 31 mg/kg.

Consider `CCc1nc(-c2ccc(C)s2)nc(Nc2ccc3cc(C(=O)O)ccc3c2)c1CC` [Example 111], for which the IC50 in assay [1] stood at 58 nM. For the same molecule, the ED50 in assay [2] was found to be 15 mg/kg. On to `CCc1c(C)nc(-c2cccs2)nc1Nc1ccc(CC(=O)Nc2ccccc2OC)cc1` [Example 113], for which, in assay [1], the IC50 was found to be 34 nM. For `CCc1c(C)nc(-c2cccs2)nc1Nc1ccc(CC(=O)NO)cc1` [Example 116], the IC50 in assay [1] came out at 10 nM. The ED50 in assay [2] stood at 12 mg/kg. Consider `CCc1nc(-c2ccc(SC)s2)nc(Nc2ccc(CC(=O)O)cc2)c1CC` [Example 128], for which the ED50 in assay [2] was 24 mg/kg. Consider `CCc1nc(-c2ccc(SC)s2)nc(Nc2ccc3cc(C(=O)O)ccc3c2)c1CC` [Example 129], for which the IC50 in assay [1] is 85 nM. Regarding `CCc1nc(-c2cc(C)c(C)s2)nc(Nc2ccc3cc(C(=O)O)ccc3c2)c1CC` [Example 155], the IC50 in the assay on PDE4 turned out to be 845 nM. In the case of `CCc1nc(-c2cc(C)c(C)o2)nc(Nc2ccc3cc(C(=O)O)ccc3c2)c1CC` [Example 157], the IC50 in assay [1] turned out to be 80 nM. Consider `CCc1c(C)nc(-c2ccc(Br)s2)nc1Nc1ccc(CC(N)=O)cc1` [Example 181], for which the IC50 in assay [1] amounted to 57 nM. In the assay with PDE4, `C=CCc1c(CC)nc(-c2cc(OC)cs2)nc1Nc1ccc2cc(C(=O)O)ccc2c1` [Example 185] displayed an IC50 of 156 nM.

Turning to `CCc1nc(-c2ccco2)nc(Nc2ccc(C(=O)O)cc2)c1CC` [Example 186], in assay [1], the IC50 worked out at 80 nM. Take `CCc1c(C)nc(-c2ccc(Br)s2)nc1Nc1ccc(CC(=O)NO)cc1` [Example 192]: the 50% inhibitory concentration (IC50) in the assay with PDE4 was 89 nM. Still for that read-out and setting: then `CCc1ccc(-c2nc(CC)c(CC)c(Nc3ccc4cc(C(=O)O)ccc4c3)n2)s1` [Example 198], with 105 nM. As to `C=CCc1c(CC)nc(-c2ccc(CC)s2)nc1Nc1ccc2cc(C(=O)O)ccc2c1` [Example 201], the 50% inhibitory concentration (IC50) in the assay on PDE4 was 133 nM. As to `CCc1c(C)nc(-c2ccc(OC)s2)nc1Nc1ccc(CC(=O)NO)cc1` [Example 203], the IC50 in assay [1] is 86 nM. `CCc1c(C)nc(-c2ccc(C)s2)nc1Nc1ccc(CC(=O)O)cc1` [Example 205]: the ED50 in assay [2] is 21 mg/kg. Consider `C=CCc1c(CC)nc(-c2ccc(C)s2)nc1Nc1ccc2cc(C(=O)O)ccc2c1` [Example 209], for which half-maximal inhibition in the assay with PDE4 (IC50) was put at 192 nM. For the molecule `CCc1nc(-c2ccc(Br)s2)nc(Nc2ccc(C(=O)O)cc2)c1CC` [Example 220], the IC50 in assay [1] is 59 nM. Moreover, the ED50 in assay [2] came to 41 mg/kg. Consider `CCc1nc(-c2ccc(Br)s2)nc(Nc2ccc(CC(=O)O)cc2)c1CC` [Example 221], for which the IC50 in assay [1] worked out at 53 nM. Further, in assay [2], the ED50 was determined as 24 mg/kg. For the molecule `CCc1nc(-c2ccc(Cc3ccccc3)s2)nc(Nc2ccc3cc(C(=O)O)ccc3c2)c1CC` [Example 234], the IC50 in assay [1] stood at 48 nM.

`CCc1nc(-c2cc(C)c(Br)s2)nc(Nc2ccc(C(=O)O)cc2)c1CC` [Example 238]: the ED50 in assay [2] came out at 20 mg/kg. As to `CCc1nc(-c2cc(C)c(Br)s2)nc(Nc2ccc(CC(=O)O)cc2)c1CC` [Example 239], the ED50 in assay [2] is 22 mg/kg. Same read-out and setting: to `C=CCc1c(C)nc(-c2ccc(Br)s2)nc1Nc1ccc(CC(=O)O)cc1` [Example 241] belongs 39 mg/kg. Take `CCc1c(C)nc(-c2ccc(Cl)s2)nc1Nc1ccc(CC(=O)O)cc1` [Example 253]: the IC50 in assay [1] worked out at 504 nM. The ED50 in assay [2] worked out at 14 mg/kg. As for `C=CCc1c(C)nc(-c2ccc(Cl)s2)nc1Nc1ccc(CC(=O)O)cc1` [Example 254], the ED50 in assay [2] was 38 mg/kg. As for `C=CCc1c(C)nc(-c2cc(C)c(Br)s2)nc1Nc1ccc(CC(=O)O)cc1` [Example 274], in assay [2], the ED50 was determined as 25 mg/kg. Regarding `CCc1nc(-c2ccc(Cl)s2)nc(Nc2ccc(CC(=O)O)cc2)c1CC` [Example 289], the ED50 in assay [2] was found to be 18 mg/kg. Consider `CCc1c(C)nc(-c2cc(C)c(I)s2)nc1Nc1ccc(CC(=O)O)cc1` [Example 292], for which the ED50 in assay [2] was 25 mg/kg. On to `CCc1nc(-c2cc(C)c(I)s2)nc(Nc2ccc(CC(=O)O)cc2)c1CC` [Example 293], for which the ED50 in assay [2] turned out to be 18 mg/kg. For the molecule `CCc1c(C)nc(-c2cccs2)nc1Nc1ccc(CC(=O)O)cc1F` [Example 344], in assay [2], the ED50 came out at 27 mg/kg.

On to `CCc1c(C)nc(-c2ccc(I)s2)nc1Nc1ccc(CC(=O)O)cc1F` [Example 345], for which, in assay [2], the ED50 came out at 37 mg/kg.

With `CCc1c(C)nc(-c2ccc(F)s2)nc1Nc1ccc(CC(=O)O)cc1` [Example 373], the ED50 in assay [2] was 19 mg/kg. As to `CCc1c(C)nc(-c2ccc(F)s2)nc1Nc1ccc(CC(=O)O)cc1F` [Example 376], in assay [2], the ED50 amounted to 12 mg/kg. On to `Cc1nc(-c2ccc(Cl)s2)nc(Nc2ccc(CC(=O)O)cc2)c1CO` [Example 386], for which the ED50 in assay [2] was found to be 50 mg/kg.
